“And” between values parts separate entries of the source, which are not always exact repeats. Identical values can stand only once.
Tests used:
[1] = Pharmacokinetics after iv and oral administration, P‐S difference method, Mdr1a/1b(−/−) mice; format: in vivo
Method: (§1) Male Mdr1a/1b(−/−) and Bcrp(−/−) mice, and WT mice of the same genetic background (FVB) were obtained from Taconic Farms (Germantown, NY, USA). […] Food and water were available ad libitum. All experiments were carried out in accordance with the principles and procedures outlined in the National Institutes of Health Guide for the Care and Use of Laboratory.
(§2) All the mice were fasted overnight with free access to tap water. In the intravenous administration studies, model compounds were administered via the tail vein at doses of 1 mg/kg (n = 3). Following administration, blood samples were collected from the abdominal vein of the anesthetized mice at 0.083, 0.17, 0.5, 1, 2, 4, and 8 hours. […] Following administration, blood samples were taken from the portal and abdominal veins of the anesthetized mice at 0.083, 0.17, 0.5, 1, 2, 4, and 8 hours. The plasma samples were separated by centrifugation at 14 000g for 10 minutes at 4°C and stored at −30°C until analysis.
(§3) After organic layer was evaporated at 60°C, the resultant residues were dissolved in a mobile phase. For the determination of topotecan and sulfasalazine, plasma samples were mixed with acetonitrile, centrifuged at 750 g for 10 minutes at 4°C, and the supernatants were collected. After the evaporation of the supernatants, the residues were dissolved in a mobile phase, and acidified with phosphoric acid for topotecan. All drugs were analyzed by HPLC system (Shimadzu LC‐10AS pump, Shimadzu SIL‐10A autosampler) equipped with a reverse‐phase column (COSMOSIL 5C18‐AR‐II, 3.5‐μm […], 4.6 × 150 mm).
(§4) Elimination rate constant (k e) was determined by the least squares regression analysis of plasma concentration vs time curve. Elimination half‐life (t 1/2) was calculated using Eq.1:(1) t1/2=ln2/ke
(§5) Area under plasma concentration‐time curve (AUC) and area under the first moment curve (AUMC) from time 0 to infinity were calculated by trapezoidal rule.
(§6) Absorption rate constant (k a) after oral administration was calculated by the nonlinear least squares fitting with program MULTI.12
(§7) BA was calculated by Eq.5:(7) BA=AUCoral/AUCiv×Doseiv/Doseoral×100 where AUCoral is AUC after oral administration. Doseiv and Doseoral are administered dose in the intravenous and oral administration study, respectively.
(§8) Hepatic availability (F h) was calculated by Eq.6:(8) Fh=F/Fa×Fg

BCRP [2] = details: Caco‐2 permeability study; ref (10); Kawahara et al, manuscript in revision; cited from earlier work
P‐gp [3] = details: Caco‐2 permeability study; unpublished data; ref Fujita et al, manuscript in preparation; cited from earlier work
[4] = Pharmacokinetics after iv and oral administration, P‐S difference method, wild‐type mice; format: in vivo
Method: as §1, §2, §3, §4, §5, §6, §7, §8

[5] = Blood/plasma concentration ratio (R b) in fresh whole blood; format: in vitro ADME, FVB mice; details: fresh whole blood, FVB mouse whole blood, 37°C
Method: Similarly, the model compounds were added to plasma, and reference blood samples were obtained according to the same procedure. These concentrations of drugs in each sample were analyzed using HPLC (C B and C P, respectively). R b value was calculated by dividing C B by C P.

P‐gp [6] = details: in vivo (mice); calculated from F a F g in WT, Bcrp(−/−) and Mdr1a/1b(−/−) mice (Eq. 12)
[7] = Pharmacokinetics after iv and oral administration, P‐S difference method, Bcrp(−/−) mice; format: in vivo
Method: as §1, §2, §3, §4, §5, §6, §7, §8

BCRP [8] = tested on: BCRP
[9] = Mdr1a/1b(−/−) mice, p.o. (ciprofloxacin 1, nitrofurantoin 2, topotecan 1, sulfasalazine 5 mg/kg)
[10] = male, Mdr1a/1b(−/−) (FVB background), mouse, systemic plasma (abdominal vein), po
[11] = wild‐type mice, p.o. (ciprofloxacin 1, nitrofurantoin 2, topotecan 1, sulfasalazine 5 mg/kg)
[12] = Bcrp(−/−) mice, p.o. (ciprofloxacin 1, nitrofurantoin 2, topotecan 1, sulfasalazine 5 mg/kg)

O=C1CN(/N=C/c2ccc([N+](=O)[O-])o2)C(=O)N1 [nitrofurantoin, Nitrofurantoin]
F h [1, 9]: 79.9%
k a [1, 9]: 7.2 h⁻¹ and 7.20 h⁻¹
BA ([1]; Mdr1a/1b(−/−) mice, p.o. (ciprofloxacin 1, nitrofurantoin 2, topotecan 1, sulfasalazine 5 mg/kg) vs iv 1 mg/kg): 60.0%
F a F g ([1]; Mdr1a/1b(−/−) mice, p.o. (ciprofloxacin 1, nitrofurantoin 2, topotecan 1, sulfasalazine 5 mg/kg), P‐S difference method): 75.2%
AUC 0→∞ (AUCpv) ([1]; Mdr1a/1b(−/−) mice, p.o. (ciprofloxacin 1, nitrofurantoin 2, topotecan 1, sulfasalazine 5 mg/kg), portal vein (pv) plasma): 3.18 µM·h
AUC 0→∞ (AUCsys) ([1]; Mdr1a/1b(−/−) mice, p.o. (ciprofloxacin 1, nitrofurantoin 2, topotecan 1, sulfasalazine 5 mg/kg), systemic (sys) plasma): 2.35 µM·h
k a, P‐gp ([1]; Table 5 summary, Mdr1a/1b(−/−) mice, oral administration): 7.20
(F a F g)P‐gp ([1]; as fraction, Mdr1a/1b(−/−) mice, oral administration): 0.75
clearance ([1]; male, FVB Mdr1a/1b(−/−), mouse, plasma (systemic, abdominal vein), Mdr1a/1b(−/−) mice, iv 1 mg/kg, read-out: CL tot (converted)): 35.8 mL/min/kg
Vd ([1]; male, FVB Mdr1a/1b(−/−), mouse, plasma (systemic, abdominal vein), Mdr1a/1b(−/−) mice, iv 1 mg/kg, read-out: Vdss): 1.36 L/kg
AUC(0-inf) ([1]; male, FVB Mdr1a/1b(−/−), mouse, portal vein plasma, po, Mdr1a/1b(−/−) mice, p.o. (ciprofloxacin 1, nitrofurantoin 2, topotecan 1, sulfasalazine 5 mg/kg), portal vein (pv) plasma, read-out: AUC 0→∞ (AUCpv)): 3.18 µM·h
AUC(0-inf) ([1]; male, FVB Mdr1a/1b(−/−), mouse, systemic plasma (abdominal vein), po, Mdr1a/1b(−/−) mice, p.o. (ciprofloxacin 1, nitrofurantoin 2, topotecan 1, sulfasalazine 5 mg/kg), systemic (sys) plasma, read-out: AUC 0→∞ (AUCsys)): 2.35 µM·h
AUC(0-inf) ([1]; male, Mdr1a/1b(−/−) (FVB background), mouse, plasma, iv, 1 mg/kg, Mdr1a/1b(−/−) mice, iv 1 mg/kg, read-out: AUC 0→∞): 1.95 µM·h
half-life ([1]; male, Mdr1a/1b(−/−) (FVB background), mouse, plasma, Mdr1a/1b(−/−) mice, iv 1 mg/kg): 70.2 min
Tmax ([1]; male, Mdr1a/1b(−/−) (FVB background), mouse, portal vein plasma, po): 10.2 min
Tmax [1, 10]: 10.2 min
half-life [1, 10]: 73.2 min
AUC pv and AUC sys after oral administration, Mdr1a/1b(−/−) mice vs WT mice ([1]; oral administration): approximately 1.5 fold
AQbcrp in vitro (Caco‐2) (BCRP [2]): 0.37
AQp‐gp in vitro (Caco‐2) (P‐gp [3]): 0.09
k a, wt ([4]; Table 5 summary, WT mice, oral administration): 5.80
(F a F g) wt ([4]; as fraction, WT mice, oral administration): 0.64
clearance ([4]; male, FVB (wild-type), mouse, plasma (systemic, abdominal vein), wild‐type mice, iv 1 mg/kg, read-out: CL tot (converted)): 38 mL/min/kg
Vd ([4]; male, FVB (wild-type), mouse, plasma (systemic, abdominal vein), wild‐type mice, iv 1 mg/kg, read-out: Vdss): 1.94 L/kg
half-life ([4]; male, FVB (wild-type), mouse, plasma, iv, 1 mg/kg, wild‐type mice, iv 1 mg/kg): 172 min
AUC(0-inf) ([4]; male, FVB (wild-type), mouse, plasma, iv, 1 mg/kg, wild‐type mice, iv 1 mg/kg, read-out: AUC 0→∞): 1.84 µM·h
Tmax ([4]; male, FVB (wild-type), mouse, portal vein plasma, po): 10.2 min
AUC(0-inf) ([4]; male, FVB (wild-type), mouse, portal vein plasma, po, wild‐type mice, p.o. (ciprofloxacin 1, nitrofurantoin 2, topotecan 1, sulfasalazine 5 mg/kg), portal vein (pv) plasma, read-out: AUC 0→∞ (AUCpv)): 2.54 µM·h
Tmax ([4]; male, FVB (wild-type), mouse, systemic plasma (abdominal vein), po): 10.2 min
half-life ([4]; male, FVB (wild-type), mouse, systemic plasma (abdominal vein), po, wild‐type mice, p.o. (ciprofloxacin 1, nitrofurantoin 2, topotecan 1, sulfasalazine 5 mg/kg), systemic (sys) plasma): 55.8 min
AUC(0-inf) ([4]; male, FVB (wild-type), mouse, systemic plasma (abdominal vein), po, wild‐type mice, p.o. (ciprofloxacin 1, nitrofurantoin 2, topotecan 1, sulfasalazine 5 mg/kg), systemic (sys) plasma, read-out: AUC 0→∞ (AUCsys)): 1.83 µM·h
F h [4, 11]: 78.3%
k a [4, 11]: 5.8 h⁻¹ and 5.80 h⁻¹
BA ([4]; wild‐type mice, p.o. (ciprofloxacin 1, nitrofurantoin 2, topotecan 1, sulfasalazine 5 mg/kg) vs iv 1 mg/kg): 49.9%
F a F g ([4]; wild‐type mice, p.o. (ciprofloxacin 1, nitrofurantoin 2, topotecan 1, sulfasalazine 5 mg/kg), P‐S difference method): 63.7%
AUC 0→∞ (AUCpv) ([4]; wild‐type mice, p.o. (ciprofloxacin 1, nitrofurantoin 2, topotecan 1, sulfasalazine 5 mg/kg), portal vein (pv) plasma): 2.55 µM·h
AUC 0→∞ (AUCsys) ([4]; wild‐type mice, p.o. (ciprofloxacin 1, nitrofurantoin 2, topotecan 1, sulfasalazine 5 mg/kg), systemic (sys) plasma): 1.84 µM·h
blood plasma ratio at 15 min, 1 µg/mL [5]: 1.18 ± 0.1
R P‐gp (rate of P‐gp contribution) (P‐gp [6]): 0.13
F h [7, 12]: 90.0%
k a [7, 12]: 6.9 h⁻¹ and 6.89 h⁻¹
BA ([7]; Bcrp(−/−) mice, p.o. (ciprofloxacin 1, nitrofurantoin 2, topotecan 1, sulfasalazine 5 mg/kg) vs iv 1 mg/kg): 69.4%
F a F g ([7]; Bcrp(−/−) mice, p.o. (ciprofloxacin 1, nitrofurantoin 2, topotecan 1, sulfasalazine 5 mg/kg), P‐S difference method): 77.1%
AUC 0→∞ (AUCpv) ([7]; Bcrp(−/−) mice, p.o. (ciprofloxacin 1, nitrofurantoin 2, topotecan 1, sulfasalazine 5 mg/kg), portal vein (pv) plasma): 3.41 µM·h
AUC 0→∞ (AUCsys) ([7]; Bcrp(−/−) mice, p.o. (ciprofloxacin 1, nitrofurantoin 2, topotecan 1, sulfasalazine 5 mg/kg), systemic (sys) plasma): 2.56 µM·h
k a, bcrp ([7]; Table 5 summary, Bcrp(−/−) mice, oral administration): 6.89
(F a F g)bcrp ([7]; as fraction, Bcrp(−/−) mice, oral administration): 0.77
half-life ([7]; male, Bcrp(−/−) (FVB background), mouse, plasma, iv, 1 mg/kg, Bcrp(−/−) mice, iv 1 mg/kg): 84.6 min
Tmax ([7]; male, Bcrp(−/−) (FVB background), mouse, portal vein plasma, po): 10.2 min
Tmax ([7]; male, Bcrp(−/−) (FVB background), mouse, systemic plasma (abdominal vein), po): 10.2 min
AUC(0-inf) ([7]; male, FVB Bcrp(−/−), mouse, plasma (systemic, abdominal vein), iv, 1 mg/kg, Bcrp(−/−) mice, iv 1 mg/kg, read-out: AUC 0→∞): 1.84 µM·h
clearance ([7]; male, FVB Bcrp(−/−), mouse, plasma (systemic, abdominal vein), Bcrp(−/−) mice, iv 1 mg/kg, read-out: CL tot (converted)): 38 mL/min/kg
Vd ([7]; male, FVB Bcrp(−/−), mouse, plasma (systemic, abdominal vein), Bcrp(−/−) mice, iv 1 mg/kg, read-out: Vdss): 1.45 L/kg
AUC(0-inf) ([7]; male, FVB Bcrp(−/−), mouse, portal vein plasma, po, Bcrp(−/−) mice, p.o. (ciprofloxacin 1, nitrofurantoin 2, topotecan 1, sulfasalazine 5 mg/kg), portal vein (pv) plasma, read-out: AUC 0→∞ (AUCpv)): 3.41 µM·h
half-life ([7]; male, FVB Bcrp(−/−), mouse, systemic plasma (abdominal vein), po, Bcrp(−/−) mice, p.o. (ciprofloxacin 1, nitrofurantoin 2, topotecan 1, sulfasalazine 5 mg/kg), systemic (sys) plasma): 75 min
AUC(0-inf) ([7]; male, FVB Bcrp(−/−), mouse, systemic plasma (abdominal vein), po, Bcrp(−/−) mice, p.o. (ciprofloxacin 1, nitrofurantoin 2, topotecan 1, sulfasalazine 5 mg/kg), systemic (sys) plasma, read-out: AUC 0→∞ (AUCsys)): 2.56 µM·h
AUC pv and AUC sys after oral administration, Bcrp(−/−) mice vs WT mice ([7]; oral administration): approximately 1.5 fold
AQ bcrp (in vivo) (BCRP [8]; calculated from k a in WT, Bcrp(−/−) and Mdr1a/1b(−/−) mice (Eq. 9)): 0.13
R bcrp (rate of BCRP contribution) (BCRP [8]; in vivo (mice), calculated from F a F g in WT, Bcrp(−/−) and Mdr1a/1b(−/−) mice (Eq. 11)): 0.15

— paper PMC6968775, “Assessment of contribution of BCRP to intestinal absorption of various drugs using portal‐systemic blood concentration difference model in mice” (Pharmacology Research & Perspectives, 2020)
